How the values were obtained:
[1] = target: T1, Mineralocorticoid receptor (Homo sapiens, UniProt P08235); test: In vitro antagonistic activity against human mineralocorticoid receptor (hMR); not active; assay type: functional
T1 sequence (P08235 whole entry): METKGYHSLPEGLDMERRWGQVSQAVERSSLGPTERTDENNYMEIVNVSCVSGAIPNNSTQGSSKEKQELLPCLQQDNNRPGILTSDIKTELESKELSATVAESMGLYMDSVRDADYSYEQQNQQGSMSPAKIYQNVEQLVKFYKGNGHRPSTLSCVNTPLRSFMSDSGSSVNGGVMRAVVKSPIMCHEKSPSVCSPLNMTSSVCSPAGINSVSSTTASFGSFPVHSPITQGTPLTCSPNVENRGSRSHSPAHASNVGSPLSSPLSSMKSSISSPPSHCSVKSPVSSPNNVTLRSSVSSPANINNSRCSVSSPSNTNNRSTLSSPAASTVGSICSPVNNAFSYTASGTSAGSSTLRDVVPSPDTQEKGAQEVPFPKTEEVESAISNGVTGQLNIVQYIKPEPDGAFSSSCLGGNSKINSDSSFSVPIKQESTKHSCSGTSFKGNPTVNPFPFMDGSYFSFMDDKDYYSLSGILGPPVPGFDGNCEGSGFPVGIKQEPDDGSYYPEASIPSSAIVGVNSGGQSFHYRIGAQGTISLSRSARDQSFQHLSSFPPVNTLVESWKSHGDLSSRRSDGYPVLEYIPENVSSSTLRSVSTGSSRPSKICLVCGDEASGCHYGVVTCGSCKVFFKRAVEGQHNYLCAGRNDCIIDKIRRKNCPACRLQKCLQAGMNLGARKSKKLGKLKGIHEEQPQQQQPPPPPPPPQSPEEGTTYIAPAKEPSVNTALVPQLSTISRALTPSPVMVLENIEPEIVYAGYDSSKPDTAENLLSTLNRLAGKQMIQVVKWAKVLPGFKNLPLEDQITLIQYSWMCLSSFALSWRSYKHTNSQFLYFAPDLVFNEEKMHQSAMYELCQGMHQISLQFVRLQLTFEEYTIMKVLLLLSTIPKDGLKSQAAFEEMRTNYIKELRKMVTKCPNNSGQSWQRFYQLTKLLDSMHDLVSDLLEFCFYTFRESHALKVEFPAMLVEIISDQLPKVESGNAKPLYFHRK

[2] = target: T2, Mineralocorticoid receptor (Homo sapiens) (UniProt P08235); test: In vitro antagonistic activity against human mineralocorticoid receptor (hMR); assay type: functional
T2 sequence (whole entry): T1 sequence (P08235 whole entry)

Compound | IC50 [1] | Efficacy [2]
CCC1Nc2cc3oc(=O)cc(C(F)(F)F)c3cc2CC1C (stereo not given) | > 10 µM | < 20%
CCC1CCNc2cc3oc(=O)cc(C(F)(F)F)c3cc21 (stereo not given) | > 10 µM | < 20%
O=c1cc(C(F)(F)F)c2cc3c(cc2o1)NCCC3C(F)(F)F (stereo not given) | > 10 µM | < 20%
CCCC1CCNc2cc3oc(=O)cc(C(F)(F)F)c3cc21 (stereo not given) | > 10 µM | < 20%
CC1CCNc2cc3oc(=O)cc(C(F)(F)F)c3cc21 (stereo not given) | > 10 µM | < 20%
